Source: US20240075036A1, “THERAPEUTIC COMBINATIONS INCLUDING INHIBITORS OF THE P2X4 RECEPTOR FOR TREATING AND PREVENTING PROLIFERATIVE DISORDERS” (CHEMOTHERAPEUTISCHES FORSCHUNGSINSTITUT GEORG-SPEYER-HAUS, priority 2021, published 2024)
Residues, ends and D or L forms follow the SMILES beside them. *: point of attachment. Cbz = O=C(OCc1ccccc1)*; CH2F = FC*

What was measured:
[1] = test system: S6 ribosomal protein phosphorylation (mTOR signaling); assay: Immunoblot analysis of survival pathways / S6 phosphorylation in AOM/DSS tumor organoids; format: cell-based, mice; conditions: for ATP induced phosphorylation of S6: ATP (100 μM) in presence of inhibitor, AOM/DSS tumor organoids
Procedure: Data are mean±SD, n=7. *p<0.05 by two-tailed Student's t-test. c, Immunoblot analysis of Lgr5EGFP-DTR(−) tumor organoids treated with ATP (100 μM), 2MeS ADP (100 μM) and adenosine (100 μM) for 30 min. […] Data are mean±SD, n=4 replicates. […] Data are mean±SD, n=3 replicates. One representative of three experiment performed is shown. n.s. p>0,05, *p<0.05***, p<0.001, ****p<0.0001 by 1-way ANOVA with Bonferroni's multiple comparison test. 1, Immunoblot analysis of doxycycline inducible P2x4 knockdown APTAK colon tumor organoids treated with 5-FU (20 μM). Organoids were cultured in medium−/+doxycycline prior to the experiment. […] Organoids were cultured in medium−/+doxycycline prior to the experiment. […] Data are mean±SD, n=3.
In vitro Lgr5+ cells ablation experiments, organoids were treated with 20 ng/ml DT (Millipore, #322326) in the culture medium. For human LGR5+ cells ablation, we treated LGR5-iCT organoids with 500 nM BB homodimerizer. Other treatments were performed as described in each figure legends.

[2] = test system: APTAK tumor organoids; assay: APTAK tumor organoids: S6 phosphorylation and organoid survival; format: cell-based, mice; conditions: 5-FU
Procedure: Organoids were cultured in medium−/+doxycycline prior to the experiment. […] Organoids were cultured in medium−/+doxycycline prior to the experiment.
Colon tumor organoids were cultured as previously described (27). AOM/DSS induced colon tumors were harvested by opening the colon longitudinally and dissociated enzymatically for 30-40 min in digestion media containing 1 mg/ml collagenase I (Sigma-Aldrich), 0.5 mg/ml Dispase (Roche), 50 μg/ml DNase (Sigma-Aldrich) in RPMI medium containing 2% FCS. Supernatant was washed and filtered through a 70 μM cell strainer. Cells were then embedded in Matrigel (Corning, #356231) and cultured in Advanced Dulbecco's modified Eagle's medium/F12 (Invitrogen, #12634-028) supplemented with Glutamax (Invitrogen, #35050038), Hepes (Invitrogen, #15630056), Pen/Strep (Invitrogen, #15140122), N2 supplement (Invitrogen, #17502048), B27supplement (Invitrogen, #17504044) and n-Acetylcysteine (Sigma-Aldrich, #A91165). EGF (Invitrogen, #PMG8045), RspoI and noggin were added as niche factor.

[3] = test system: human colon organoids derived from tumor tissue; assay: ROS measurement with DCFDA in organoids; format: cell-based; conditions: 5-FU (20 μM, 20 h)
Procedure: (§1) Data are mean±SD, n=3. […] Data are mean±SD, n=3.
ATP level in organoid supernatant or necrotic medium was measured using the CellTiter-Glo 2.0 Cell Viability Assay (Promega #G9242) according to the manufacturers instruction. ROS levels were measured using H2DCFDA (ThermoFisher #D339). Briefly, organoids were treated as indicated with 5-FU, stained with H2DCFDA and then analyzed for H2DCFDA positivity using fluorescence microscopy or FACS.

[4] = test system: S6 ribosomal protein phosphorylation, DNA damage and apoptosis markers
[5] = test system: subcutaneous AOM/DSSATKN tumors; format: in vivo, NSG mice
[6] = test system: subcutaneous APTAKshP2x4 tumors; assay: Subcutaneous APTAKshP2x4 tumors, 5-FU/rapamycin with or without NAC; format: in vivo, mice; conditions: additional application of NAC (0,5% in drinking water)
Procedure: as §1
Organoids were collected using ice cold Cell Recovery Solution (Corning, #354253) and mechanically dissociated into small clusters. Dissociated organoid cells were resuspended in PBS, admixed with 50% Matrigel (Corning, #356231) in a final volume of 100 μl, and injected subcutaneously in the right flank of NSG mice. Tumor size was monitored with a digital caliper and tumor volumes were calculated according to the formula (length×width×width)/2. At the end of experiments mice were humanely euthanized to collect tumors.
DT (Millipore, #322326) treatment was performed as previously described (3, 4). Briefly, DT was injected intraperitonially at a dose of 50 μg/kg for the time indicated in individual experiments. mTOR inhibitor rapamycin (LC Labs, #-5000) was dissolved in 5% Ethanol, 5% PEG400 and 5% Tween 80 in PBS and injected i.p. at 10 mg/kg once a day for indicated time. 0.5% N-acetylcysteine (Sigma-Aldrich, #A91165) was applied ad libitum in drinking water. 0.5 mg/ml Doxycycline (Sigma #D9891) was applied ad libitum in drinking water containing 3% Sucrose. 5-FU (Sigma #F6627) was dissolved in sterile H2O and injected intraperitoneally for the time indicated in individual experiments at a concentration of 20 mg/kg.

[7] = test system: Lgr5EGFP-DTR(+) tumor organoids; assay: Tumor organoid survival / cell death upon treatment with or without DT; format: cell-based, mice
Description: Representative images are shown from at least three independent experiments. c, Average tumor size was counted on serial hematoxylin and eosin (H&E) stained sections on day 9 after 4 injections of either DT or vehicle. Data are mean±SD, n≥8/treatment. p>0.05 (n.s., not significant) by two-tailed Student's t-test. d, Immunohistochemical analysis and quantification of Lgr5-EGFP expression in GFP-stained colon tumor from Lgr5EGFP-DTR(+) mice on day 9 treated with DT as indicated in a). Representative images are shown (n≥8/treatment, scale bar=300 μm). […] Representative images are shown from four independent experiments (n=4/treatment, scale bar=200 μm). Data represent mean±SD, n=4/treatment. p>0.05 (n.s., not significant) by two-tailed Student's t-test. f, Flow cytometric analysis of Lgr5-EGFP+tumor cells from Lgr5EGFP-DTR(+) tumor organoids 24 h after DT treatment. Representative results are shown (n≥3). g, AOM/DSS colon tumor organoids from Lgr5EGFP-DTR(−) and Lgr5EGFP-DTR(+) mice were treated with DT (20 ng/ml) for 24 h. Representative images are shown from two independent experiments (scale bar=200 μm). h, Immunoblot analysis of Lgr5EGFP-DTR(+) and Lgr5EGFP-DTR(−) tumor organoids treated with DT for 24 h. […] 1, Control and raptor knockdown Lgr5EGFP-DTR(+) tumor organoids were passaged and counted after 72 h. […]

[8] = test system: PC3 and C4-2B4 cells; conditions: selective P2XR4 antagonists; cited from earlier work
[9] = test system: HCT-116 cells; conditions: combination of SAMC and rapamycin; cited from earlier work
[10] = test system: S6 phosphorylation in intestinal epithelial cells (IEC); assay: S6 phosphorylation in intestinal epithelial cells of wildtype mice; format: in vivo; conditions: azoxymethane (10 mg/kg single injection), untransformed wildtype mice
Procedure: as §1
Immunostaining was performed as previously described (35). Briefly, tissues were fixed with 4% paraformaldehyde. Six μm OCT frozen tissue sections or 5 μm paraffin-embedded tissue sections were processed for immunostaining using a standard histological protocol. Following primary antibodies were used: EGFP (Abcam, #ab6673), tdTomato (Rockland, #600-401-379), cleaved caspase 3 (Cell Signaling, #9579), Ki67 (Leica Bioststems, #NCL-L-Ki67-MM1), phospho-S6 (Cell Signaling, #2211),P2x4 (Abcam #134559). Sections were then incubated with HRPconjugated antibodies (Dako) and signal was detected with DAB reaction. For immunofluorescence staining after primary antibody incubation, sections were incubated with flourochrome-labelled secondary antibodies (Invitrogen) and sections were mounted with ProLong Gold Antifade Mountant with DAPI (Invitrogen, #P36931). Images were captured on a Zeiss microscope.

[11] = test system: AOM/DSSATKN tumor organoids; conditions: for rescue of organoid reseeding capacity under 5-FU/rapamycin: inhibitor of potential proapoptotic DAMPs added to 5-FU (20 μM) plus rapamycin (10 μM), 48 hours, re-seeded 72 h
Description: Percentage of reseeding capacity compared to vehicle treated organoids is indicated. Data are mean±SD, n=4 replicates. […] Percentage of reseeding capacity compared to vehicle treated organoids is indicated.

[12] = test system: refractory metastatic colorectal cancer / refractory solid tumors; conditions: further addition of panitumumab to everolimus + mFOLFOX6; cited from earlier work

Molecule: O=c1[nH]cc(F)c(=O)[nH]1 [5-FU, 5-fluorouracil]
- phosphorylation of S6 ([1]; 5-FU, absence of Lgr5+ cells (Noggin withdrawal)): able to induce phosphorylation of S6
- S6 phosphorylation [2]: led to mTOR dependent S6 phosphorylation
- ROS levels (DCFDA) [3]: tumor organoid specific ROS increase
- S6 phosphorylation ([4]; 5-FU (20 μM, 24 hours), AOM/DSS tumor tissues and tumor organoids): induced S6 phosphorylation

Molecule: Clc1cccc(-c2nnnn2Cc2cccnc2)c1Cl [A-438079]
- ATP induced phosphorylation of S6 [1]: did not decrease ATP dependent S6 phosphorylation

Molecule: Nc1ncnc2c1ncn2[C@@H]1O[C@H](COP(=O)(O)OP(=O)(O)OP(=O)(O)O)[C@@H](O)[C@H]1O [ATP, adenosine triphosphate]
- phosphorylation of S6-ribosomal protein ([1]; Lgr5EGFP-DTR(−) tumor organoids, 100 μM, 30 min): induced phosphorylation of S6-ribosomal protein

Molecule: CC(=O)N[C@@H](CS)C(=O)O [NAC, N-acetylcysteine]
- apoptosis in tumor tissues (cleaved Caspase 3) ([5]; NAC (0,5% in drinking water) in DT/rapamycin treated animals): reduced apoptosis in tumor tissues
- tumor regression in 5-FU/rapamycin treated mice [6]: revert tumor regression
- DNA damage and apoptosis in tumor organoids ([4]; NAC (2 mM) in addition to DT and rapamycin, compared to DT/rapamycin alone): decreased DNA damage and apoptosis

Molecule: O=C(Nc1ccc(C(=O)Nc2ccc(C(=O)Nc3ccc(S(=O)(=O)O)c4cc(S(=O)(=O)O)cc(S(=O)(=O)O)c34)cc2)cc1)Nc1ccc(C(=O)Nc2ccc(C(=O)Nc3ccc(S(=O)(=O)O)c4cc(S(=O)(=O)O)cc(S(=O)(=O)O)c34)cc2)cc1 [NF279]
- ATP induced phosphorylation of S6 [1]: did not decrease ATP dependent S6 phosphorylation

Molecule: CNC(=O)c1ccc(C)c(-n2c(C)cc(OCc3ccc(F)cc3F)c(Br)c2=O)c1 [PH797804]
- tumor organoid survival ([7]; MAPK inhibitor (JNK or p38) in the presence or absence of DT): did not affect tumor organoid survival

Molecule: Cc1nc(N=Nc2ccc(S(=O)(=O)O)cc2S(=O)(=O)O)c(COP(=O)(O)O)c(C=O)c1O [PPADS]
- Lgr5+ cell death induced S6 phosphorylation ([1]; non-selective P2 receptor antagonists): blocked Lgr5+ cell death induced S6 phosphorylation

Molecule: Cc1ccc(S(=O)(=O)N2c3ccccc3Oc3ccccc32)cc1 [PSB-12062]
- growth, mobility and apoptosis of PCa cells [8]: impaired the growth and mobility of PCa cells but not apoptosis

Molecule: C=CCSSC[C@H](N)C(=O)O [SAMC, S-allylmercapto-cysteine]
- tumor suppression [9]: enhanced tumor-suppressing ability

Molecule: CN=[N+](C)[O-] [azoxymethane]
- S6 phosphorylation in IEC [10]: enhanced S6 phosphorylation in IEC

Molecule: Nc1nc2c(ncn2[C@@H]2O[C@@H]3COP(=O)(O)O[C@H]4[C@@H](O)[C@H](n5cnc6c(N)ncnc65)O[C@@H]4COP(=O)(O)O[C@@H]2[C@@H]3O)c(=O)[nH]1 [cGAMP]
- phosphorylation of S6-ribosomal protein ([1]; exogenous cGAMP): induced phosphorylation of S6-ribosomal protein in a dose dependent manner

Molecule: NC(=O)c1ncn([C@@H]2O[C@H](CO)[C@@H](O)[C@H]2O)c1O [mizoribine]
- organoid collapse ([7]; mizoribine in combination with DT-mediated depletion of Lgr5+ cells, ex vivo): profound organoid collapse
- S6-ribosomal protein phosphorylation ([5]; mizoribine in combination with DT-mediated depletion of Lgr5+ cells): without affecting S6-ribosomal protein phosphorylation
- viable proliferative tumor cells ([5]; mizoribine in combination with DT-mediated depletion of Lgr5+ cells, s.c. tumors): markedly reduced viable proliferative

Molecule: COC(=O)C[C@H](NC(=O)[C@H](C)NC(=O)[C@@H](NC(=O)OCc1ccccc1)C(C)C)C(=O)CF [zVAD, carbobenzoxy-valyl-alanyl-aspartyl-[O-methyl]-fluoromethyl ketone] (Cbz-Val-Ala-Asp(OMe)-CH2F)
- organoid survival under combined 5-FU/rapamycin treatment ([11]; apoptosis inhibitor zVAD (50 μM) added): rescued the negative effect of combined 5-FU/rapamycin treatment on organoid survival

Molecule: Anakinra: IL-1 signaling inhibitor
- rescue of organoid reseeding capacity under 5-FU/rapamycin [11]: only inhibition of ROS signaling by NAC was able to rescue

Molecule: Apyrase
- S6 phosphorylation induced by DT treatment or necrotic supernatant ([1]; Apyrase hydrolyzing released ATP): reduce the levels of S6 phosphorylation

Molecule: Enbrel
- rescue of organoid reseeding capacity under 5-FU/rapamycin [11]: only inhibition of ROS signaling by NAC was able to rescue

Molecule: panitumumab: added to everolimus + mFOLFOX6 in phase I trial
- toxicity [12]: unacceptable level of toxicity
